In patent US20110212100A1, “METHODS FOR MODULATING DEVELOPMENT AND EXPANSION OF IL-17 EXPRESSING CELLS” (priority 2007, published 2011):

Assays:
Type in all cases: cell-based, mouse
[1] = tested on: Th17 differentiation of CD4+ CD25− T cells; assay: Th17 differentiation (IL-17+ IFNγ− cells) of T cells activated with TGFβ plus IL-6
Procedure: Low doses of halofuginone (HF) were tested to determine the ability of HF to enhance Treg differentiation, while suppressing Th17 differentiation. Nave. CD4+ T cells (CD4+ CD25−) were isolated from the spleen and peripheral lymph nodes of C57B/6 mice. T cells were then activated using anti-CD3 (0.3 μg/ml) and anti-CD28 (0.5 μg/ml) antibodies either in media alone (row 1, 4), TGFβ alone (3 ng/ml—row 2, 5) or TGFβ (3 ng/ml) plus IL-6 (30 ng/ml) (row 3, 6). […] T cells were cultured for 3 days and CD25 and Foxp3 expression (Treg marker genes) was determine by FACS staining and flow cytometric analyses. Simultaneously, T cells were harvested and re-stimulated for 4 hours using phorbol myristic acetate (PMA; 10 nM), Ionomycin (1 μM) and cytokine secretion was prevented using brefeldin A (20 μg/ml). Following stimulation, the production of IL-17 and IFNγ were determined by intracellular staining and analyzed via flow cytometry.
(§1) The dose-response of HF on CD4+ T cell proliferation, activation (i.e. CD25 upregulation) and differentiation to Th1, Th2 and Th17 lineages were evaluated. Purified murine naïve CD4+ CD25− T cells were activated using anti-CD3 (0.3 μg/ml) and anti-CD28 (0.5 μg/ml) antibodies and varying amounts of HF was added to each T cell culture condition (1.25 nM-40 nM). CD4+ T cell proliferation was monitored by CFSE dilution on day 3-post activation and CD25 expression was evaluated by FACS staining 2 days after activation. For T cell differentiation experiments, naïve T cells were activated as above in the presence of Th1 (IL-12 (20 ng/ml) plus anti-IL-4 (10 μg/ml)), Th2 (IL-4 (50 ng/ml) plus anti-IFNγ (0.5 mg/ml)) or Th17 (TGFβ (3 ng/ml) plus IL-6 (30 ng/ml)) polarizing conditions plus titrating amounts of HF (1.25 nM-40 nM) or MAZ1310 (40 nM). The percentage of Th17 cells, (IL-17^+ IFNγ^−) was evaluated on day 3 following activation, whereas the abundance of Th1 cells (IFNγ^+ IL-4) and Th2 cells (IL-4^+ IFNγ^−) was determined 5 days following activation. All cytokine expression was determined by intracellular staining following PMA+Ionomycin+Brefeldin A re-stimulation and all data was normalized to control (MAZ1310)-treated cells. […] Biol., vol. 80:1-8 (2006).
(§2) Cytokines, antibodies and T cell culture: Purified CD4^+ CD25^− T cells were activated in vitro as previously described (I. M. Djuretic et al., Nat Immunol 8, 145 (2007)) using 0.3 μg/ml hamster anti-mouse CD3 (clone 145-2C11) (ATCC—Manassas, Va.) and 0.5 μg/ml hamster anti-mouse CD28 (BD Pharmingen, San Jose, Calif.). Activated cell cultures were differentiated using the following combinations of cytokines and antibodies: iTreg=recombinant human TGFβ1 (3 ng/ml; R&D systems, Minneapolis, Minn.), Th17βTGFβ1 (3 ng/ml) plus recombinant mouse IL-6 (30 ng/ml, R&D systems). Th1 and Th2 differentiation was performed as previously described. (I. M. Djuretic et al., Nat Immunol 8, 145 (2007)). Human IL-2 supernatant (National Cancer Institute) was used in culture at 0.01 U/ml and was added at 48 hours-post activation when T cells were split into tissue culture wells lacking CD3 and CD28 antibodies, with the exception of Th17 cultures that were maintained in the absence of IL-2. All reagents were added at the time of T cell activation and again at 48-hours post activation unless indicated otherwise. For some experiments, purified CD4^+ CD25^− T cells, CD8^+ T cells or B cells were labeled with 1 μM CFSE (Invitrogen) prior to activation in accordance with manufacturers instructions.
Detection of cytokine production: Cytokines secreted into media supernatant were measured using the mouse Th1/Th2 cytometric bead array (CBA, BD Pharmingen) in accordance with manufacturers instructions.

[2] = tested on: TGFβ-induced Smad phosphorylation; assay: TGFβ signaling in T and B cells (Smad phosphorylation, lymphocyte responses to TGFβ); conditions: HF 2.5-40 nM or 10 nM; SB-431542 10 μM
Procedure: T cells were then activated in the presence or absence of 3 ng/ml. TGFβ. Whole cell extracts were prepared after 1 hour of stimulation and western blot analyses were performed using the indicated antibodies.
Western blotting: Whole cell lysates were generated from T cells activated for the indicated times. For STAT3 and Smad2/3 western blots cells were harvested, washed in PBS and lysed in 50 mM Tris, pH 7.4, 0.1% SDS, 1% Triton-X100, 140 mM NaCl, 1 mM EDTA, 1 mM EGTA supplemented with protease inhibitors tablets (Roche-Germany), 1 mM NaF and 1 mM Na3VO4. For eIF2α and ATF4 western blots, cells were harvested as above and lysed in 50 mM Tris, pH 7.4, 2% SDS, 20% glycerol and 2 mM EDTA supplemented with protease and phosphatase inhibitors as above. All lysates were cleared via centrifugation and 15-30 μg of protein was resolved by SDS-PAGE. Protein was transferred to nitrocellulose membranes, blocked and blotted using specific antibodies. Antibodies used for western blot analysis were anti-phospho-Smad2, anti-STAT3 (pY705), anti-STAT3, anti-eIF2α^pS51, anti-eIF2α, anti-GCN2^pT898, anti-GCN2 (all from cell signaling technology, Danvers, Mass.). Anti-ATF4/CREB2 and anti-β-actin were purchased from Santa Cruz biotechnology (Santa Cruz, Calif.). […]

CD4+ CD25− T cells = assay: CD4+ T cell proliferation, CD25 upregulation, cytokine production and Th1/Th2/iTreg differentiation; conditions: titrating concentrations of tunicamycin
Procedure: as §1, §2
Detection of cytokine production: Cytokines secreted into media supernatant were measured using the mouse Th1/Th2 cytometric bead array (CBA, BD Pharmingen) in accordance with manufacturers instructions. […]

## N[C@H](CO)Cc1c[nH]c2ccccc12 [L-tryptophanol]
[1]; 0.2 mM in complete medium, TGFβ plus IL-6
  effect of L-tryptophanol on IL-17 production, in words: impaired IL-17 production

## CC(C)(C)OC(=O)N1CCC[C@H](O)[C@H]1CC(=O)Cn1cnc2cc(Br)c(Cl)cc2c1=O [MAZ1310]
[1]; used at equal concentrations as HF
  activity of the HF derivative used as negative control, in words: inactive

## NC(=O)c1ccc(-c2nc(-c3ccc4c(c3)OCO4)c(-c3ccccn3)[nH]2)cc1 [SB-431542]
[2]
  effect on TGFβ-induced Smad phosphorylation and other lymphocyte responses to TGFβ, in words: abrogated all responses to TGFβ

## tunicamycin
[1]; titrating concentrations of tunicamycin
  effect of tunicamycin on IL-17 expression in T cells, in words: little influence on IL-17 expression
CD4+ CD25− T cells
  effect of tunicamycin on Th1 and Th2 differentiation, in words: preferentially impaired Th1 and Th2 differentiation
